Source: article PMC11855207, “Synthesis and Evaluation of Aromatic A-Ring 23-Oxavitamin D3 Analogues as Hedgehog Pathway Inhibitors” (International Journal of Molecular Sciences, 2025)

Tests used:
ASZ001 cells = assay: Anti-proliferation (MTS) in ASZ001 cells; format: cell-based; settings: Mus musculus, 48 h incubation, mean ± SEM
[1] = system: primary Ptch-CKO MB cells; assay: Anti-proliferation (MTS) in primary Ptch-CKO MB cells; format: cell-based; settings: Mus musculus, 48 h incubation, mean ± SEM
Description: Ptch-CKO MB cells, derived from a conditional Patched knockout mouse, lack Ptch-like ASZ001 cells. Consequently, the inhibitory effect of the compound on Ptch-CKO MB cells directly reflects its suppression of the canonical Hh signaling pathway. Cell viability was assessed by MTS proliferation assay kit (Promega, Madison, WI, USA) according to the manufacturer’s protocol. Culture conditions and experimental protocols to determine GI50 values in the primary murine Ptch-CKO MB cells were as previously described.

[2] = system: Hh signaling (Gli1 mRNA) in SuFu−/− C3H10T1/2 cells; assay: Gli1 down-regulation in SuFu−/− C3H10T1/2 cells; format: cell-based, mouse; settings: 24 h
full-length human Smo = biological target: T1, full-length human Smo (Homo sapiens, UniProt Q99835); assay: BODIPY-Cyc displacement (flow cytometry) in HEK293T cells overexpressing Smo; format: binding; settings: up to 10 μM
T1 construct: HEK293T cells overexpressing full-length human Smo was evaluated; expressed in transfected cells; host or cells: HEK293T
T1 sequence (Q99835 28-787): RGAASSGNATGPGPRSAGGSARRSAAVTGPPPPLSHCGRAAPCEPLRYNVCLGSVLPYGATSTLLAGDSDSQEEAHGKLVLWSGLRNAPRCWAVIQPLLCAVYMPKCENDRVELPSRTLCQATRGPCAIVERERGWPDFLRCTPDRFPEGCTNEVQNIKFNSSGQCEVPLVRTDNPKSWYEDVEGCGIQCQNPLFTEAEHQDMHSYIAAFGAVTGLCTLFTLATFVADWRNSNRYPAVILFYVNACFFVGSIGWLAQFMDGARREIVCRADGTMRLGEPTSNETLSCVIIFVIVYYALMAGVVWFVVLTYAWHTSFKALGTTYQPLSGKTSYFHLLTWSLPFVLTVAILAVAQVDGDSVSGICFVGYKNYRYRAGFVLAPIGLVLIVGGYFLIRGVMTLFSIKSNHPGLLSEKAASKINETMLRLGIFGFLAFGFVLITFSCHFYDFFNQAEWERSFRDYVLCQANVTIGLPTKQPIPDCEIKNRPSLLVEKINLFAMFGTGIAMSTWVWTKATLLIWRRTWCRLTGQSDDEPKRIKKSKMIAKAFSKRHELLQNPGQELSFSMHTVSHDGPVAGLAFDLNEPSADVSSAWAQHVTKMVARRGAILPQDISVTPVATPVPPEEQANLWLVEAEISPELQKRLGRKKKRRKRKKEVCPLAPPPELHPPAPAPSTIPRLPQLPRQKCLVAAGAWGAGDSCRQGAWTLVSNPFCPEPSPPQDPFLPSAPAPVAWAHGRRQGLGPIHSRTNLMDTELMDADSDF

[3] = system: Hh signaling (Gli1 mRNA) in VDR−/− C3H10T1/2 cells; assay: Gli1 down-regulation in VDR−/− C3H10T1/2 cells; format: cell-based, mouse; settings: 24 h
[4] = system: Hh signaling pathway (Ptch mRNA) in C3H10T1/2 cells; assay: Ptch mRNA down-regulation (qPCR) in C3H10T1/2 cells; format: cell-based; settings: Mus musculus, C3H 10T1/2; C3H10T1/2 cells; mean ± SEM; read-out: Ptch IC50
[5] = system: Hh signaling pathway (Gli1 mRNA) in C3H10T1/2 cells; assay: Gli1 mRNA down-regulation (qPCR) in OHC-stimulated C3H10T1/2 cells; format: cell-based, mouse; settings: Mus musculus; for mrna remaining at 5 µM: C3H 10T1/2, 5 μM with OHCs 5 μM, 24 h, relative Gli1 mRNA levels compared to OHCs (set to 100%); for IC50: C3H 10T1/2, mean ± SEM
Description: (§1) The VD3 analogues were initially assessed for their ability to inhibit the Hh signaling pathway by evaluating the effects on endogenous Gli1 mRNA levels at a single concentration (5 μM) co-administration of oxysterols (OHCs; 20(S)-hydroxycholesterol, 22(S)-hydroxycholesterol at 5 μM each) in C3H10T1/2 cells, an Hh-dependent mouse embryonic fibroblast (MEF) cell line. […] VD3 derivatives may retain some VDR agonistic activity, thereby compromising the selectivity of these compounds as Hh inhibitors. The selectivity profile of the analogues for Hh inhibition, compared to typical VDR activation, was assessed by measuring the ability to up-regulate Cyp24a1 mRNA levels in the same cellular system and by evaluating their binding to VDR using a fluorescence polarization-based competition assay (Table 1).
(§2) Mouse embryonic fibroblast cell line (C3H10T1/2, wild-type, VDR^−/−, SuFu^−/−), mouse keratinocyte cell line (ASZ001), and human embryonic kidney cell line (HEK293T) were purchased from China Center for Type Culture Collection (CCTCC; Wuhan, Hubei, China) and cultured under standard protocols. […] Therefore, they can be used to assess the inhibitory strength of the Hh signaling and the selectivity of the VDR signaling. VDR^−/− and SuFu^−/− C3H10T1/2 cells were used to study compounds selectivity for Hh and VDR signaling. If compounds regulate Hh signaling independently of VDR, their ability to down-regulate Gli1 mRNA expression should be abolished in SuFu^−/− C3H10T1/2 cells. […] The loss of Ptch in ASZ001 cells […], so down-regulating Gli1 reflects direct Smo inhibition by the compound. Comparing results from ASZ001 and C3H10T1/2 cells highlights the compound’s inhibition of the Hh signaling pathway.
(§3) RNA isolation in C3H10T1/2 cells was performed in 24-well plates (50,000 cells plated; TRIZOL Reagent); in ASZ001, cells were done in 35 mm dishes (300,000 cells plated; TRIZOL Reagent). cDNA synthesis was performed utilizing the SweScript All-in-One RT SuperMix Kit (Servicebio, Wuhan, China) per the manufacturer’s instructions on a BioRad S1000 Thermal Cycler (Hercules, CA, USA). qPCR (Hh signaling pathway and VDR) analysis of target genes was performed on Step OnePlus (ABI) using the Taqman Gene Expression Assays: mouse ActB (Mm00607939_s1), mouse GLI1 (Mm00494645_ml), mouse PTCH1(Mm00436026_m1), and mouse CYP24A1 (Mm00487244_ml). Relative gene expression levels were computed via the ΔΔCt method. ActinB mRNA expression levels of all samples were normalized to DMSO control ActinB mRNA levels (vehicle; set at 1.00). […] The mRNA expression levels from drug-treated samples were compared to OHCs levels (Gli1, PTCH) and DMSO control (Cyp24A1).

[6] = system: Cyp24A1 mRNA in VDR−/− C3H10T1/2 cells; assay: Cyp24A1 up-regulation in VDR−/− C3H10T1/2 cells; format: cell-based, mouse; settings: 24 h
[7] = system: VDR signaling (Cyp24A1 mRNA) in ASZ001 cells; assay: Cyp24A1 mRNA expression (qPCR) in ASZ001 cells; format: cell-based; settings: Mus musculus; ASZ001 cells; 5 μM, 24 h; DMSO set to 1.0; read-out: Cyp24A1 mRNA levels relative to DMSO
Smo protein = biological target: T2, Smo protein (Homo sapiens, UniProt Q99835); assay: Surface plasmon resonance (SPR) binding to Smo; settings: 2.5, 5, 10 μM in PBS, 4 °C
T2 construct: purchased ACRO Biosystems SMO-H52P3
T2 sequence (Q99835 28-787): as above
Description: Surface plasmon resonance (SPR) was used to evaluate the binding capacity of the compounds 3j and 4i to Smo. […] To investigate the binding sites of the analogues on Smo, the ability of 3j and 4i to displace BODIPY-Cyc from HEK293T cells overexpressing full-length human Smo was evaluated. […] Smo contains two small molecule binding sites, one located in the extracellular cysteine-rich domain (CRD) and the other in the 7-transmembrane helix (7-TM) region. […] Endogenous oxidized sterols can regulate Smo activity by binding CRD [27]. These analogues, as mimetics of steroid hormones, may interact with Smo by binding to CRD.
SPR analysis was conducted as described in papers. The analyses of interactions between Smo protein (ACRO Biosystems, SMO-H52P3, Newark, DE, USA) and compounds at different concentrations (2.5, 5, 10 μM) was performed in PBS and a flow rate of 2 μL/s at 4 °C. The sensor chip surface was regenerated by injection of 0.5% SDS: Glycine-HCl (pH = 2.0) = 1:1 solution.

Hh signaling pathway = assay: Anti-Hh activity in combination with vismodegib; format: cell-based; settings: combined with vismodegib 100 nM
recombinant VDR = biological target: T3, recombinant VDR (Homo sapiens, UniProt P11473); assay: VDR binding, fluorescence polarization-based competition assay (PolarScreen VDR Competitor Assay Red); settings: compounds evaluated at 100 μM
T3 construct: purchased Thermo Fisher Scientific
T3 sequence (P11473 1-427): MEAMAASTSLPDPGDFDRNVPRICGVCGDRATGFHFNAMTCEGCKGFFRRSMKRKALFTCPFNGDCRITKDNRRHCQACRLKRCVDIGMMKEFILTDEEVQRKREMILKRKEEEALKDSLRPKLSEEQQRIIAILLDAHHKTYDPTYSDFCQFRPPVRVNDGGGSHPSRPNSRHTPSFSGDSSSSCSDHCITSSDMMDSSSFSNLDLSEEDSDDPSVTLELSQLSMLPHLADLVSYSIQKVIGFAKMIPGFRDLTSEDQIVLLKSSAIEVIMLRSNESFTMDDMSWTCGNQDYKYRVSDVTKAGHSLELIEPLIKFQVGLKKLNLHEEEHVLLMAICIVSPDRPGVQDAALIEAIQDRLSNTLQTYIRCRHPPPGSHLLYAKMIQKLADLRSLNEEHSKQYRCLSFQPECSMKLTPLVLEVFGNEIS
Description: as §1
VDR binding assay was performed using a PolarScreen VDR Competitor Assay Red kit (Thermo Fisher Scientific, Carlsbad, CA, USA) per the manufacturer’s instructions. Compounds were evaluated at 100 μM in 2.5% final DMSO in triplicate. Calcitriol is utilized as a positive control for VDR binding.

[8] = system: Cyp24A1 mRNA in SuFu−/− C3H10T1/2 cells; assay: Cyp24A1 up-regulation in SuFu−/− C3H10T1/2 cells; format: cell-based, mouse; settings: 24 h
[9] = system: VDR signaling (Cyp24A1 mRNA) in C3H10T1/2 cells; assay: Cyp24A1 mRNA up-regulation (qPCR) in C3H10T1/2 cells; format: cell-based, mouse; settings: Mus musculus, C3H 10T1/2, 5 μM with OHCs 5 μM, 24 h, relative to DMSO (set to 1.0)
Description: as §1, §2, §3

[10] = system: Hh signaling pathway (Gli1 mRNA) in ASZ001 cells; assay: Gli1 mRNA down-regulation (qPCR) in ASZ001 cells; format: cell-based; settings: Mus musculus; ASZ001 cells; mean ± SEM; read-out: Gli1 IC50

CS(=O)(=O)c1ccc(C(=O)Nc2ccc(Cl)c(-c3ccccn3)c2)c(Cl)c1 [Vismodegib, reference compound]
GI50 (ASZ001 cells): 2.1 µM | GI50 [1]: 0.78 ± 0.1 µM | Ability to inhibit Hh signaling (Gli1 down-regulation) versus wild-type cells [2]: no activity

CC1=C2C[C@H]3[C@@H](CC=C4C[C@@H](O)CC[C@@]43C)[C@@H]2CC[C@]12O[C@@H]1C[C@H](C)CN[C@H]1[C@H]2C [Cyclopamine, reference compound]
Displacement of BODIPY-Cyc from Smo (full-length human Smo): displaced BODIPY-Cyc in a concentration-dependent manner | Displacement of BODIPY-Cyc from Smo (full-length human Smo; listed as Cyc): displaced BODIPY-Cyc in a dose-dependent manner

CC(C)COC[C@@H](C)[C@H]1CC[C@H]2[C@@H](OC(=O)c3cc(O)cc(O)c3)CCC[C@]12C [Compound 3j]
GI50 (ASZ001 cells): 13.4 ± 1.4 µM | Ability to inhibit Hh signaling (Gli1 down-regulation) versus wild-type cells [3]: modestly reduced | Displacement of BODIPY-Cyc from Smo (full-length human Smo): neither 3j nor 4i affected BODIPY-Cyc-Smo binding interactions | IC50 [4]: 3.6 ± 0.5 µM | mrna remaining at 5 µM [5]: 2.4 ± 0.4% | IC50 [5]: 1.8 ± 0.3 µM | GI50 [1]: 6.7 ± 0.8 µM | Ability to up-regulate Cyp24A1 versus wild-type cells [6]: significantly reduced | fold induction at 5 µM [7]: 2.1 ± 0.3 | SPR interaction with Smo (Smo protein): exhibited interactions with Smo | Change of IC50 value in combination with vismodegib (Hh signaling pathway): did not change the IC50 value | VDR Binding (recombinant VDR): >100 µM | Ability to inhibit Hh signaling (Gli1 down-regulation) versus wild-type cells [2]: mostly abolished | Ability to up-regulate Cyp24A1 versus wild-type cells [8]: significantly reduced | fold induction at 5 µM [9]: 11.4 ± 1.3 | IC50 [10]: 5.5 ± 0.7 µM

COc1ccc(C(=O)O[C@H]2CCC[C@]3(C)[C@@H]([C@H](C)COCC(C)(C)O)CC[C@@H]23)cc1O [Compound 4g]
GI50 (ASZ001 cells): 7.8 ± 1.1 µM | IC50 [4]: 3.8 ± 0.4 µM | mrna remaining at 5 µM [5]: 2.5 ± 0.5% | IC50 [5]: 2.1 ± 0.2 µM | GI50 [1]: 3.4 ± 0.5 µM | fold induction at 5 µM [7]: 56.8 ± 5.1 | VDR Binding (recombinant VDR): >100 µM | fold induction at 5 µM [9]: 83.6 ± 15.6 | IC50 [10]: 3.7 ± 0.7 µM

C[C@H](COCC(C)(C)O)[C@H]1CC[C@H]2[C@@H](OC(=O)c3cc(O)cc(O)c3)CCC[C@]12C [Compound 4i]
GI50 (ASZ001 cells): 5.8 ± 0.8 µM | Ability to inhibit Hh signaling (Gli1 down-regulation) versus wild-type cells [3]: modestly reduced | Displacement of BODIPY-Cyc from Smo (full-length human Smo): neither 3j nor 4i affected BODIPY-Cyc-Smo binding interactions | IC50 [4]: 1.9 ± 0.3 µM | mrna remaining at 5 µM [5]: 1.7 ± 0.3% | IC50 [5]: 1.1 ± 0.1 µM | GI50 [1]: 2.2 ± 0.3 µM | Ability to up-regulate Cyp24A1 versus wild-type cells [6]: significantly reduced | fold induction at 5 µM [7]: 87.4 ± 10.6 | SPR interaction with Smo (Smo protein): exhibited interactions with Smo | Change of IC50 value in combination with vismodegib (Hh signaling pathway): did not change the IC50 value | VDR Binding (recombinant VDR): >100 µM | Ability to inhibit Hh signaling (Gli1 down-regulation) versus wild-type cells [2]: mostly abolished | Ability to up-regulate Cyp24A1 versus wild-type cells [8]: significantly reduced | fold induction at 5 µM [9]: 129 ± 16.8 | IC50 [10]: 1.8 ± 0.3 µM
